Measurements reported in US20150343038A1, “METHOD AND COMPOSITION FOR TREATING SPASTICITY” (THE REGENTS OF THE UNIVERSITY OF CALIFORNIA, priority 2013, published 2015).
“Also recorded” adds a separate entry of the source. Where two headings read alike, the source gives them in different places.

How the values were obtained:
spastic patients = conditions: intrathecal treatment; cited from earlier work
spasticity = conditions: cited from earlier work; for anti-spasticity effect in clinical studies: systemic (tiagabine: clinically-acceptable doses) or spinal administration
[1] = system: rats with ischemic spasticity; conditions: intrathecal baclofen (1 μg elsewhere in the source); previous studies, same spinal ischemia-induced spasticity model; cited from earlier work
[2] = rats; cited from earlier work
[3] = system: lumbar gray matter extracellular GABA; assay: Spinal cord microdialysis, extracellular GABA by HPLC; format: in vivo, rat; conditions: tiagabine 40 mg/kg i.p., at 20-40 min
Procedure: Spinal cord microdialysis was performed in naive (n=6), spastic-non treated (n=6), spastic HIV1-CMV-GFP lentivirus-injected (n=6) and spastic HIV1-CMV-GAD65-GFP (n=6) lentivirus-injected animals. Rats were anesthetized with 2% isoflurane, previous laminectomy site (in lentivirus injected animals) re-exposed and concentric microdialysis probe (A-2-8-02; cut off: MW 50,000; EICOM, Japan) placed into central gray matter between L3-L6 spinal cord segments. Microdialysis fiber was perfused with artificial CSF at 2 μl/min and samples collected on dry ice. After 120 min washout samples were collected in 20 min intervals before and after tiagabine (40 mg/kg, i.p.) injections and analyzed for GABA using HPLC (HTEC-500; EICOM).

[4] = system: upper extremity motor function; assay: Side effects / upper extremity motor function in treated spastic rats; format: in vivo, rat
brain extracellular GABA = conditions: after systemic administration of 11.5-21 mg/kg; cited from earlier work
[5] = human patients; cited from earlier work
[6] = system: rats with ischemic spasticity; assay: Hoffmann reflex (H-wave amplitude) during high frequency (20 Hz) stimulation; format: in vivo, rat
Procedure: H-reflex was recorded as previously described. Under ketamine anesthesia (100 mg/kg/hr, i.m.) the right hind limb of the animal was secured and a pair of stimulating needle electrodes was transcutaneously inserted into the surroundings of the tibial nerve. For recording, a pair of silver needle electrodes was placed into the interosseous muscles between the fourth and the fifth or the first and the second metatarsal right foot muscles. The tibial nerve was stimulated using square pulses with increasing stimulus intensity (0.1-10 mA in 0.5 mA increments, 0.1 Hz, 0.2 ms; WPI; Isostim A320) and responses were recorded with an A/C-coupled differential amplifier (Model DB4; DPI, Sarasota, Fla.). After the M-max and H-max responses were identified the intensity of stimulus which evoked H-max amplitudes were used in subsequent high frequency (20 Hz) stimulation experiment. In HIV1-CMVGAD65-GFP (n=6) or HIV1-CMV-GFP (n=6) lentivirus-injected animals a high frequency stimulation was performed in 5 min intervals for up to 90 min after tiagabine (40 mg/kg, i.p.) injection. Changes in H-wave amplitude were then compared between both lentivirus-injected groups.

[7] = system: rats with ischemic spasticity; format: in vivo, rat
[8] = system: in vitro cultured neurons; conditions: cited from earlier work

For `NCC(CC(=O)O)c1ccc(Cl)cc1` (stereo not shown) [baclofen], the H-reflex activity (spastic patients) is given as “significant suppression of H-reflex activity”, the “anti-spasticity effect in clinical studies” value (spasticity) is given as “most potent anti-spasticity pharmacological treatment” and the “major side effects limiting chronic use” value (spasticity; systemic or spinally-administered) is given as “general sedation and progressive tolerance development”. For the same compound, the anti-spasticity effect [1] was “potent anti-spasticity effect; also recorded: previously reported anti-spasticity effect”.

In the case of `Cc1ccsc1C(=CCCN1CCC[C@@H](C(=O)O)C1)c1sccc1C` [tiagabine], the “anti-spasticity effect in clinical studies” value (spasticity) is given as “only a weak or no anti-spasticity effect”, the serum half-life [2] is given as 0.917 h and the “spinal extracellular GABA concentration, change after tiagabine” value ([3]; HIV1-CMV-GAD65-GFP lentivirus-injected spastic animals) is given as “significant (p<0.05) increase”. For the same compound, the “spinal extracellular GABA concentration, change after tiagabine” value ([3]; naive animals) was “significant (p<0.05) increase”, the “effect on upper limb motor function” value ([4]; after tiagabine in spastic rats with lumbar GAD65 lentivirus injection) was “No detectable effect” and the side effect ([4]; either treatment alone (GAD65-LVs injection only or tiagabine only)) was “nor had any detectable side effect”. For the same compound, the “effect on upper extremity motor function” value ([4]; tiagabine 40 mg/kg i.p. + intrathecal GABA 1 mg) was “No suppressive effect”, the “increase in brain levels of extracellular GABA” value (brain extracellular GABA) was 2-3 fold and the serum half-life [5] was 5 to 8 h. For the same compound, the “change in H-wave amplitude” value ([6]; tiagabine 40 mg/kg i.p., HIV1-CMV-GAD65-GFP-injected spastic rats, ketamine-sedated) was “significant (p<0.05) reduction”, the “change in H-reflex amplitudes” value ([6]; tiagabine 40 mg/kg i.p., control HIV1-CMV-GFP-injected spastic rats, up to 90 min, ketamine-sedated) was “no change” and the “H-wave amplitude returned back to baseline by” value ([6]; {}) was at most 65 min. The “time window of significant H-wave amplitude reduction after tiagabine injection” value ([6]; {}) was 20 to 45 min, the “time of peak anti-spasticity effect after tiagabine administration” value ([7]; HIV1-CMV-GAD65-GFP-injected spastic rats) was 25 min and the “tiagabine doses providing significant (p<0.01) anti-spasticity effect” value ([7]; dose response 1, 4, 10, 20, 40 mg/kg, at 15-25 min after injection, HIV1-CMV-GAD65-GFP-injected spastic rats) was at least 4 mg/kg. For the same compound, the anti-spasticity effect ([7]; systemic tiagabine in spastic rats injected spinally (L2-L5) with GAD65-encoding lentivirus (HIV1-CMV-GAD65-GFP)) was “potent, dose-dependent reduction in spasticity; also recorded: potent and tiagabine-dose-dependent alleviation of spasticity; also recorded: potent and significant anti-spasticity effect”, the anti-spasticity effect ([7]; tiagabine 40 mg/kg i.p. alone (monotherapy)) was “without anti-spasticity effect” and the anti-spasticity effect ([7]; tiagabine 40 mg/kg i.p. followed 15 min later by intrathecal GABA 1 mg) was “potent and highly significant anti-spasticity effect”. The anti-spasticity effect ([7]; tiagabine 40 mg/kg i.p. in spastic rats injected spinally with control HIV1-CMV-GFP lentivirus) was “no antispasicity effect; also recorded: without effect”.

For `NCCCC(=O)O` [GABA, gamma-aminobutryic acid], the “concentrations required to exert receptor-mediated effect” value [8] is given as 1 to 2 µmol and the anti-spasticity effect ([7]; GABA 1 mg intrathecal alone, measured for 60 min) is given as “No significant anti-spasticity effect”.
